Measurements as given in BindingDB's records for PubMed 37567057 (Institute of Organic Chemistry and Biochemistry of the …).

Experiments:
[1] = biological target: T1, Stimulator of interferon genes protein (Homo sapiens, UniProt Q86WV6); test: Agonist activity at STING R71H/G230A/R293Q mutant (unknown origin) expressed in digitonin -permeabilized HEK293T cells preincubated for 30 mins followed by washout and measured after 5 hrs by Bright-glo luciferase assay
[2] = biological target: T1, Stimulator of interferon genes protein; test: Agonist activity at STING G230A/R293Q mutant (unknown origin) expressed in digitonin -permeabilized HEK293T cells preincubated for 30 mins followed by washout and measured after 5 hrs by Bright-glo luciferase assay

T1 sequence (Q86WV6 whole entry): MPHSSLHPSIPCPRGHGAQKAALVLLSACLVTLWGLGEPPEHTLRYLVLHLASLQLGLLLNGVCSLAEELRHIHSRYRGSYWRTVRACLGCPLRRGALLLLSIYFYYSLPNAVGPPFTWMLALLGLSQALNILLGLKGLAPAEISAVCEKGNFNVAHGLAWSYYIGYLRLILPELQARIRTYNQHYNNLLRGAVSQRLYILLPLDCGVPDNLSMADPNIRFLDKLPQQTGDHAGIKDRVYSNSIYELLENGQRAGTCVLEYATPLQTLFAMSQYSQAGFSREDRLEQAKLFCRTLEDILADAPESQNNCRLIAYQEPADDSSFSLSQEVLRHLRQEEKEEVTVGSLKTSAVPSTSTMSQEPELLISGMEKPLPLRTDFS

EC50 [1]: 100 nM
EC50 [2]: 100 nM
SMILES: Nc1ncnc2c1ncn2[C@@H]1O[C@@H]2C=CP(=O)(O)O[C@H]3[C@@H](F)[C@H](n4cnc5c(N)ncnc54)O[C@@H]3COP(=O)(O)O[C@H]2[C@H]1F
